Test results: patent publication US9833497B2, “Human originated EGF domain proteins and use of the same” (CHENGDU SOURCEBIO LIMITED-LIABILITY COMPANY, priority 2013, dated 2017)

Columns and labels:
Format in all cases: cell-based
E. coli DH5α = test: Antibacterial activity: MIC and growth curve against E. coli DH5α in 96-well plate; settings: minimal inhibitory concentration against E. coli DH5α; 96-well plate, 5×10^5 CFU/mL, 37° C., judged after 8 h
In short: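 Log-phase DH5α (OD600 about 0.5, 37° C, 185 rpm in LB) was pelleted, resuspended in fresh LB and seeded at 5×10^5 CFU/mL with recombinant protein at 50, 25 and 12.5 μg/mL (two-fold series), in triplicate. Plates were shaken at 175 rpm, 37° C, and OD600 was read every 30 min. MIC was the lowest concentration with no growth.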

E. coli BL21 = test: MIC against Gram-negative bacteria: E. coli BL21; settings: 5×10^5 CFU/mL
In short: (§1)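 Bacteria grown in LB at 37° C with shaking to McFarland 0.5, pelleted and resuspended in fresh LB, then seeded at 5×10^5 CFU/mL per well. Purified recombinant human EGF domain proteins were two-fold serially diluted in triplicate and plates shaken at 37° C, 175 rpm. MIC is the lowest protein concentration with no bacterial growth.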

Moraxella catarrhalis = test: MIC against Gram-negative bacteria: Moraxella catarrhalis; settings: 5×10^5 CFU/mL
In short: as §1

Aeromonas hydrophila = test: MIC against Gram-negative bacteria: Aeromonas hydrophila; settings: 5×10^5 CFU/mL
In short: as §1

Pseudomonas aeruginosa = test: MIC against Gram-negative bacteria: Pseudomonas aeruginosa; settings: 5×10^5 CFU/mL
In short: as §1

Enterobacter cloacae = test: MIC against Gram-negative bacteria: Enterobacter cloacae; settings: 5×10^5 CFU/mL
In short: as §1

Proteus mirabilis = test: MIC against Gram-negative bacteria: Proteus mirabilis; settings: 5×10^5 CFU/mL
In short: as §1

Klebsiella pneumonia = test: MIC against Gram-negative bacteria: Klebsiella pneumonia; settings: 5×10^5 CFU/mL
In short: as §1

Proteus vulgaris = test: MIC against Gram-negative bacteria: Proteus vulgaris; settings: 5×10^5 CFU/mL
In short: as §1

Serratia marcescens = test: MIC against Gram-negative bacteria: Serratia marcescens; settings: 5×10^5 CFU/mL
In short: as §1

Citrobacter diversus = test: MIC against Gram-negative bacteria: Citrobacter diversus; settings: 5×10^5 CFU/mL
In short: as §1

[1] = E. coli BL21, 96-well plate, 37° C., 10 h
[2] = Moraxella catarrhalis, 96-well plate, 37° C., 10 h
[3] = Aeromonas hydrophila, 96-well plate, 37° C., 10 h
[4] = Pseudomonas aeruginosa, 96-well plate, 37° C., 10 h
[5] = Enterobacter cloacae, 96-well plate, 37° C., 10 h
[6] = Proteus mirabilis, 96-well plate, 37° C., 10 h
[7] = Klebsiella pneumonia, 96-well plate, 37° C., 10 h
[8] = Proteus vulgaris, 96-well plate, 37° C., 10 h
[9] = Serratia marcescens, 96-well plate, 37° C., 10 h
[10] = Citrobacter diversus, 96-well plate, 37° C., 10 h

“PRT1415 (PRATCLDQCSGHGTFLPDTGLCSCDPSWTGHDCS; listed as Homo sapiens)” was tested, and the MIC (E. coli DH5α) was 25 µg/mL, the “MIC against E. coli BL21” value (E. coli BL21; E. coli BL21, 10 h cultivation at 37° C.) was 12.5 µg/mL and the “MIC against M. catarrhalis” value (Moraxella catarrhalis; Moraxella catarrhalis, 10 h cultivation at 37° C.) was 25 µg/mL. The “MIC against A. hydrophila” value (Aeromonas hydrophila; Aeromonas hydrophila, 10 h cultivation at 37° C.) was 25 µg/mL, the “MIC against P. aeruginosa” value (Pseudomonas aeruginosa; Pseudomonas aeruginosa, 10 h cultivation at 37° C.) was 25 µg/mL and the “MIC against E. cloacae” value (Enterobacter cloacae; Enterobacter cloacae, 10 h cultivation at 37° C.) was 25 µg/mL. For the same substance, the “MIC against P. mirabilis” value (Proteus mirabilis; Proteus mirabilis, 10 h cultivation at 37° C.) was 12.5 µg/mL, the “MIC against K. pneumonia” value (Klebsiella pneumonia; Klebsiella pneumonia, 10 h cultivation at 37° C.) was 12.5 µg/mL and the “MIC against P. vulgaris” value (Proteus vulgaris; Proteus vulgaris, 10 h cultivation at 37° C.) was 25 µg/mL. The “MIC against S. marcescens” value (Serratia marcescens; Serratia marcescens, 10 h cultivation at 37° C.) was 50 µg/mL and the “MIC against C. diversus” value (Citrobacter diversus; Citrobacter diversus, 10 h cultivation at 37° C.) was 50 µg/mL.
“PRT1211 (LSPYCKDEPCKNGGTCFDSLDGAVCQCDSGFRGERCQ; listed as Homo sapiens)” was tested, and the MIC (E. coli DH5α) was 50 µg/mL, the “MIC against E. coli BL21” value (E. coli BL21; [1]) was 25 µg/mL and the “MIC against M. catarrhalis” value (Moraxella catarrhalis; [2]) was 25 µg/mL. For the same substance, the “MIC against A. hydrophila” value (Aeromonas hydrophila; [3]) was 25 µg/mL, the “MIC against P. aeruginosa” value (Pseudomonas aeruginosa; [4]) was 12.5 µg/mL and the “MIC against E. cloacae” value (Enterobacter cloacae; [5]) was 50 µg/mL. The “MIC against P. mirabilis” value (Proteus mirabilis; [6]) was 50 µg/mL, the “MIC against K. pneumonia” value (Klebsiella pneumonia; [7]) was 25 µg/mL and the “MIC against P. vulgaris” value (Proteus vulgaris; [8]) was 25 µg/mL. The “MIC against S. marcescens” value (Serratia marcescens; [9]) was 12.5 µg/mL and the “MIC against C. diversus” value (Citrobacter diversus; [10]) was 12.5 µg/mL.
In the case of “PRT92 (VSDLCATGDHDCEQVCISSPGSYTCACHEGFTLNSDGKTCN; listed as Homo sapiens)”, the MIC (E. coli DH5α) is reported as 50 µg/mL, the “MIC (μg/mL) E. coli BL21” value (E. coli BL21; [1]) is reported as 12.5 µg/mL and the “MIC (μg/mL) M. catarrhalis” value (Moraxella catarrhalis; [2]) is reported as 25 µg/mL. For the same substance, the “MIC (μg/mL) A. hydrophila” value (Aeromonas hydrophila; [3]) was 25 µg/mL, the “MIC (μg/mL) P. aeruginosa” value (Pseudomonas aeruginosa; [4]) was 50 µg/mL and the “MIC (μg/mL) E. cloacae” value (Enterobacter cloacae; [5]) was 50 µg/mL. For the same substance, the “MIC (μg/mL) P. mirabilis” value (Proteus mirabilis; [6]) was 50 µg/mL, the “MIC (μg/mL) K. pneumonia” value (Klebsiella pneumonia; [7]) was 12.5 µg/mL and the “MIC (μg/mL) P. vulgaris” value (Proteus vulgaris; [8]) was 25 µg/mL. The “MIC (μg/mL) S. marcescens” value (Serratia marcescens; [9]) was 12.5 µg/mL and the “MIC (μg/mL) C. diversus” value (Citrobacter diversus; [10]) was 12.5 µg/mL.
With “PRT83 (DDNVCLREPCENYMKCVSVLRFDSSAPFLASASTLFRPIQPIAGLRCRCPPGFTGDFCE; listed as Homo sapiens)” the MIC (E. coli DH5α) was 12.5 µg/mL, the “MIC (μg/mL) E. coli BL21” value (E. coli BL21; [1]) was 12.5 µg/mL and the “MIC (μg/mL) M. catarrhalis” value (Moraxella catarrhalis; [2]) was 12.5 µg/mL. The “MIC (μg/mL) A. hydrophila” value (Aeromonas hydrophila; [3]) was 12.5 µg/mL, the “MIC (μg/mL) P. aeruginosa” value (Pseudomonas aeruginosa; [4]) was 25 µg/mL and the “MIC (μg/mL) E. cloacae” value (Enterobacter cloacae; [5]) was 25 µg/mL. For the same substance, the “MIC (μg/mL) P. mirabilis” value (Proteus mirabilis; [6]) was 12.5 µg/mL, the “MIC (μg/mL) K. pneumonia” value (Klebsiella pneumonia; [7]) was 12.5 µg/mL and the “MIC (μg/mL) P. vulgaris” value (Proteus vulgaris; [8]) was 12.5 µg/mL. The “MIC (μg/mL) S. marcescens” value (Serratia marcescens; [9]) was 12.5 µg/mL and the “MIC (μg/mL) C. diversus” value (Citrobacter diversus; [10]) was 25 µg/mL.
In the case of “PRT553 (CQCPGGRCDPHTGRCNCPPGLSGERCDTCSQQHQVPVPGGPVGHSIHCEV; listed as Homo sapiens)”, the MIC (E. coli DH5α) is reported as 25 µg/mL, the “MIC against E. coli BL21” value (E. coli BL21; 96-well plate, 37° C., 10 h) is reported as 50 µg/mL and the “MIC against M. catarrhalis” value (Moraxella catarrhalis; 96-well plate, 37° C., 10 h) is reported as 12.5 µg/mL. The “MIC against A. hydrophila” value (Aeromonas hydrophila; 96-well plate, 37° C., 10 h) was 50 µg/mL, the “MIC against P. aeruginosa” value (Pseudomonas aeruginosa; 96-well plate, 37° C., 10 h) was 25 µg/mL and the “MIC against E. cloacae” value (Enterobacter cloacae; 96-well plate, 37° C., 10 h) was 25 µg/mL. The “MIC against P. mirabilis” value (Proteus mirabilis; 96-well plate, 37° C., 10 h) was 25 µg/mL, the “MIC against K. pneumonia” value (Klebsiella pneumonia; 96-well plate, 37° C., 10 h) was 12.5 µg/mL and the “MIC against P. vulgaris” value (Proteus vulgaris; 96-well plate, 37° C., 10 h) was 50 µg/mL. For the same substance, the “MIC against S. marcescens” value (Serratia marcescens; 96-well plate, 37° C., 10 h) was 25 µg/mL and the “MIC against C. diversus” value (Citrobacter diversus; 96-well plate, 37° C., 10 h) was 25 µg/mL.
“PRT508 (CECSHLGNNCDPKTGRCICPPNTIGEKCSKCAPNTWGHSITTGCKA; listed as Homo sapiens)” was tested, and the MIC (E. coli DH5α) was 12.5 µg/mL, the “MIC against E. coli BL21” value (E. coli BL21; 96-well plate, 37° C., 10 h) was 25 µg/mL and the “MIC against M. catarrhalis” value (Moraxella catarrhalis; 96-well plate, 37° C., 10 h) was 50 µg/mL. For the same substance, the “MIC against A. hydrophila” value (Aeromonas hydrophila; 96-well plate, 37° C., 10 h) was 50 µg/mL, the “MIC against P. aeruginosa” value (Pseudomonas aeruginosa; 96-well plate, 37° C., 10 h) was 50 µg/mL and the “MIC against E. cloacae” value (Enterobacter cloacae; 96-well plate, 37° C., 10 h) was 12.5 µg/mL. The “MIC against P. mirabilis” value (Proteus mirabilis; 96-well plate, 37° C., 10 h) was 12.5 µg/mL, the “MIC against K. pneumonia” value (Klebsiella pneumonia; 96-well plate, 37° C., 10 h) was 25 µg/mL and the “MIC against P. vulgaris” value (Proteus vulgaris; 96-well plate, 37° C., 10 h) was 12.5 µg/mL. For the same substance, the “MIC against S. marcescens” value (Serratia marcescens; 96-well plate, 37° C., 10 h) was 25 µg/mL and the “MIC against C. diversus” value (Citrobacter diversus; 96-well plate, 37° C., 10 h) was 100 µg/mL.
“PRT609 (CHCSPVGSLSTQCDSYGRCSCKPGVMGDKCDRCQPGFHSLTEAGCRP; listed as Homo sapiens)” was tested, and the MIC (E. coli DH5α) was 50 µg/mL, the “MIC E. coli BL21” value (E. coli BL21; 96-well plate, 37° C., 10 h) was 25 µg/mL and the “MIC M. catarrhalis” value (Moraxella catarrhalis; 96-well plate, 37° C., 10 h) was 25 µg/mL. For the same substance, the “MIC A. hydrophila” value (Aeromonas hydrophila; 96-well plate, 37° C., 10 h) was 25 µg/mL, the “MIC P. aeruginosa” value (Pseudomonas aeruginosa; 96-well plate, 37° C., 10 h) was 12.5 µg/mL and the “MIC E. cloacae” value (Enterobacter cloacae; 96-well plate, 37° C., 10 h) was 50 µg/mL. For the same substance, the “MIC P. mirabilis” value (Proteus mirabilis; 96-well plate, 37° C., 10 h) was 50 µg/mL, the “MIC K. pneumonia” value (Klebsiella pneumonia; 96-well plate, 37° C., 10 h) was 25 µg/mL and the “MIC P. vulgaris” value (Proteus vulgaris; 96-well plate, 37° C., 10 h) was 25 µg/mL. For the same substance, the “MIC S. marcescens” value (Serratia marcescens; 96-well plate, 37° C., 10 h) was 12.5 µg/mL and the “MIC C. diversus” value (Citrobacter diversus; 96-well plate, 37° C., 10 h) was 12.5 µg/mL.
